Results from US20090042883A1, “ANTITUMOR AGENT” (KYOWA HAKKOKOGYO CO., priority 2005, published 2009).

How the values were obtained:
Format in all cases: cell-based
[1] = tested on: human chronic myelocytic leukemia K562 cells; experiment: Growth inhibition test on human chronic myelocytic leukemia K562 cells (WST-1, % viability); details: test compound 10 μmol/L, 72 hours, cells without test compound = 100%
Method: (§1) One thousand cells of human chronic myelocytic leukemia K562 were inoculated into each well of a 96-well microplate (manufactured by Nunc Corp.), and using RPMI1640 medium (culture medium) containing 10% fetal calf serum (FCS), preculturing was performed in a 5% carbon dioxide incubator at 37° C. for 24 hours. A dimethyl sulfoxide (DMSO) solution of each test compound prepared in a concentration of 10 mmol/L was diluted with the culture medium to a final concentration of 10 μmol/L, and the diluted solution was added to each well. The individual wells were further cultured in the 5% carbon dioxide incubator at 37° C. for 72 hours. After completion of the culturing, 10 μL of WST-1 {4-[3-(4-Iodophenyl)-2-(4-nitrophenyl)-2H-5-tetrazolio]-1,3-benzene disulfonate} labeled mixture (manufactured by Roche Diagnostic Corp.) was added to each well, and culturing was performed in the 5% carbon dioxide incubator at 37° C. for 2 hours. Using a microplate spectrophotometer (SpectraMax 340PC384; manufactured by Nihon Molecular Devices), the absorbance of each well was measured at 450 nm and 655 nm. The value obtained by subtracting the absorbance at 450 nm from the absorbance at 655 nm (absorbance difference) was calculated for each well. The value for cells not incorporated with a test compound was designated as 100%, and the value at a well not containing cells was designated as 0%. By comparing these values with the absorbance difference obtained at the well in which each test compound was added, the cell viability (% viability) after treatment with the test compound was calculated.

[2] = tested on: human renal cancer OS-RC-2 cells; experiment: Growth inhibition test on human renal cancer OS-RC-2 cells (WST-1, % viability); details: test compound 10 μmol/L, 72 hours, cells without test compound = 100%
Method: as §1, with “renal cancer OS-RC-2” for “chronic myelocytic leukemia K562”, “FCS,” for “fetal calf serum (FCS),”, “DMSO” for “dimethyl sulfoxide (DMSO)”, “WST-1” for “WST-1 {4-[3-(4-Iodophenyl)-2-(4-nitrophenyl)-2H-5-tetrazolio]-1,3-benzene disulfonate}”, “(Model 550;” for “(SpectraMax 340PC384;”, “Bio-Rad),” for “Nihon Molecular Devices),”

[3] = tested on: human T-cell lymphoma Karpas-299 cells; experiment: Growth inhibition test on human T-cell lymphoma Karpas-299 cells (WST-1, % viability); details: test compound 10 μmol/L, 72 hours, cells without test compound = 100%
Method: (§2) Five thousand cells of human T-cell lymphoma Karpas-299 were inoculated into each well of a 96-well microplate (manufactured by Nunc Corp.), and using RPMI medium (culture medium) containing 10% FCS, preculturing was performed in a 5% carbon dioxide incubator at 37° C. for 5 hours. A DMSO solution of each test compound prepared in a concentration of 10 mmol/L was diluted with the culture medium to a final concentration of 10 μmol/L, and the diluted solution was added to each well. The individual wells were further cultured in the 5% carbon dioxide incubator at 37° C. for 72 hours. After completion of the culturing, 10 μL of WST-1 labeled mixture (manufactured by Roche Diagnostic Corp.) was added to each well, and culturing was performed in the 5% carbon dioxide incubator at 37° C. for 2 hours. Using a microplate spectrophotometer (SpectraMax 340PC384; manufactured by Nihon Molecular Devices), the absorbance of each well was measured at 450 nm and 655 nm. The value obtained by subtracting the absorbance at 450 nm from the absorbance at 655 nm (absorbance difference) was calculated for each well. The value for cells not incorporated with a test compound was designated as 100%, and the value at a well not containing cells was designated as 0%. By comparing these values with the absorbance difference obtained at the well in which each test compound was added, the cell viability (% viability) after treatment with the test compound was calculated.

[4] = tested on: human mammary cancer BT-474 cells; experiment: Growth inhibition test on human mammary cancer BT-474 cells (WST-1, % viability); details: test compound 10 μmol/L, cells without test compound = 100%
Method: as §2, with “Four thousand” for “Five thousand”, “human mammary cancer BT-474” for “human T-cell lymphoma Karpas-299”, “using Dulbecco's Modified Eagle's Medium (DMEM)” for “using RPMI medium”, “for 24” for “for 5”

SMILES | Viability of tumor cells (% viability), Human chronic myelocytic leukemia K562 cells [1] [%] | Viability of tumor cells (% viability), Human renal cancer OS-RC-2 cells [2] [%] | Viability of tumor cells (% viability), Human T-cell lymphoma Karpas-299 cells [3] [%] | Viability of tumor cells (% viability), Human mammary cancer BT-474 cells [4] [%]
CCc1c(O)cc(O)c(C(=O)c2ccc(OC)c(OC)c2)c1CC(=O)N1CCN(c2ccccc2)CC1 [Compound 41] | 4 | 18 | 19 | 14
CCc1c(O)cc(O)c(C(=O)c2ccc(OC(C)C)cc2)c1CC(=O)N(CCOC)CCN1CCOCC1 [Compound 134] | 4 | 21 | 16 | 13
CCc1c(O)cc(O)c(C(=O)c2ccc(SC)cc2)c1CC(=O)N(CCO)CCOC [Compound 95] | 4 | 18 | 15 | 13
CCc1c(O)cc(O)c(C(=O)c2ccc(OC)cc2)c1CC(=O)N1CCC(CO)CC1 [Compound 61] | 5 | 25 | 13 | 12
CCc1c(O)cc(O)c(C(=O)c2ccc(OC)cc2)c1CC(=O)N1CCN(c2ncccn2)CC1 [Compound 32] | 4 | 17 | 15 | 13
CCc1c(O)cc(O)c(C(=O)c2ccc(OC(F)(F)F)cc2)c1CC(=O)N(CCO)CCOC [Compound 88] | 4 | 17 | 16 | 13
CCc1c(O)cc(O)c(C(=O)c2ccc(OC)cc2)c1CC(=O)N1CCN(c2ccccc2C#N)CC1 [Compound 17] | 4 | 20 | 16 | 10
CCc1c(O)cc(O)c(C(=O)c2ccc(OC)cc2)c1CC(=O)N(CCO)CCO [Compound 13] | 26 | 66 | 27 | 12
CCc1c(O)cc(O)c(C(=O)c2ccc(O)c(OC)c2)c1CC(=O)N(CCOC)CCOC [Compound 106] | 4 | 16 | 13 | 12
CCc1c(O)cc(O)c(C(=O)c2ccc(OC)cc2)c1CC(=O)N1CCc2cc(OC)c(OC)cc2C1 [Compound 38] | 4 | 18 | 14 | 13
CCc1c(O)cc(O)c(C(=O)c2ccc(C(F)(F)F)cc2)c1CC(=O)N(CCO)CCOC [Compound 144] | 4 | 16 | 15 | 13
CCc1c(O)cc(O)c(C(=O)c2ccc(OCCCN3CCOCC3)c(OC)c2)c1CC(=O)N(CCOC)CCOC [Compound 149] | 4 | 20 | 14 | 14
CCc1c(O)cc(O)c(C(=O)c2ccc(OC(F)F)cc2)c1CC(=O)N(CCO)CCOC [Compound 91] | 4 | 17 | 16 | 13
CCc1c(O)cc(O)c(C(=O)c2ccsc2)c1CC(=O)N(CCO)CCOC [Compound 151] | 4 | 30 | 13 | 13
CCOc1ccc(C(=O)c2c(O)cc(O)c(CC)c2CC(=O)N(CCO)CCOC)cc1 [Compound 122] | 4 | 15 | 12 | 12
CCc1c(O)cc(O)c(C(=O)c2ccc(OCCN3CCOCC3)c(OC)c2)c1CC(=O)N(CCOC)CCOC.Cl [Compound 139] | 4 | 21 | 14 | 14
CCc1c(O)cc(O)c(C(=O)c2ccc(S(C)(=O)=O)cc2)c1CC(=O)N(CCOC)CCOC [Compound 107] | 5 | 18 | 14 | 13
CCc1c(O)cc(O)c(C(=O)c2ccc(OC)cc2)c1CC(=O)N(C)Cc1cccnc1 [Compound 16] | 4 | 17 | 13 | 12
